Results on one compound are retold here after patent US20180369118A1, “METHODS FOR SPORE REMOVAL” (3M INNOVATIVE PROPERTIES COMPANY, priority 2015, published 2018).

The test system of the assay is C.sporogenes spores ATCC 3584. As to the kind of experiment: In-vitro removal of spores from Vitro-Skin (finger bag collection method). The note with it: Example 4. The source says:
The in-vitro method was designed to evaluate the removal of microbes from skin using a synthetic skin material from the cosmetic industry, Vitro-skin from IMS inc, Portland MeThis method enables rapid screening of formulations for their propensity to promote release of microbes from skin and may be predictive of in-vivo activity.
The following materials were utilized. C.sporogenes spores ATCC 3584˜1.0×10̂8 CFU/ml; Triton-X 100 sampling buffer (pH 7.4) Filter Sterilized: 0.4 g KH2PO4, 10.1 g Na2HPO4, 1 g Triton-X 100, and 1 L dH2O; D/E neutralizing broth; Fingers from disposable polyethylene gloves (VWR 32915-268); Sterile dH2O (WFI quality water); 3M AC Petrifilm; and 5 ml Falcon tubes; 1.5 ml EPI Centrifuge tubes; Petri Dishes; Vitro-Skin IMS Inc.; and double-sided tape.
The method included the following. Punched-out specified number of Vitro-Skin samples using the ¾″ punch. Attached punch-out Vitro-Skin samples to a Petri-dish or any other sterile flat surface using double-sided tape. Contaminated the Vitro-Skin samples accordingly with 10μl of spores/spore prep (˜1×10̂6 CFU/Sample). Used the pipette tip to spread spores over the surface and used a new pipette tip for each sample. Allowed the samples to dry (˜40 minutes). […]
For best statistical data each test solution was repeated 3 times. […] Counted plates and analyzed data.

Turning to `N=C(NCCCCCCNC(=N)NC(=N)Nc1ccc(Cl)cc1)NC(=N)Nc1ccc(Cl)cc1.O=C(O)[C@H](O)[C@@H](O)[C@H](O)[C@H](O)CO.O=C(O)[C@H](O)[C@@H](O)[C@H](O)[C@H](O)CO` [CHG, Chlorhexidine gluconate], the “spore removal (in words)” value is “poor spore removal”.
